This is an account of results in ChEMBL document CHEMBL1128144, “Cyclic sulfone-3-carboxamides as novel P2-ligands for Ro 31-8959 based HIV-1 protease inhibitors” (Bioorg Med Chem Lett, 1995).

For the first experiment, the system named is MT4. Briefly: Inhibitory activity against HIV-1 in MT-4 lymphoid cells infected with IIIb. The note with it: Homo sapiens, read-out: CIC95. The format is functional.
With `CC(C)(C)NC(=O)[C@@H]1C[C@@H]2CCCC[C@@H]2CN1C[C@@H](O)[C@H](Cc1ccccc1)NC(=O)[C@H]1CCCS(=O)(=O)C1`, the IC95 was 400 nM.

On to `CC(C)(C)NC(=O)[C@@H]1C[C@@H]2CCCC[C@@H]2CN1C[C@@H](O)[C@H](Cc1ccccc1)NC(=O)[C@@H]1CCCS(=O)(=O)C1`, for which the IC95 was 200 nM.

In a further experiment the target is Human immunodeficiency virus type 1 protease (Human immunodeficiency virus 1, UniProt Q72874). As to the kind of experiment: Inhibition of HIV-1 Protease.
Conditions: not given
For `CC(C)(C)NC(=O)[C@@H]1C[C@@H]2CCCC[C@@H]2CN1C[C@@H](O)[C@H](Cc1ccccc1)NC(=O)[C@H]1CCSC1`, it took 650 nM to reach half-maximal inhibition (IC50).

Turning to `CC(C)(C)NC(=O)[C@@H]1C[C@@H]2CCCC[C@@H]2CN1C[C@@H](O)[C@H](Cc1ccccc1)NC(=O)[C@H]1CCCS(=O)(=O)C1`, inhibition was half-maximal at 23.5 nM (IC50). This IC50 is about 28-fold lower than that of the molecule before.

For the molecule `CC(C)(C)NC(=O)[C@@H]1C[C@@H]2CCCC[C@@H]2CN1C[C@@H](O)[C@H](Cc1ccccc1)NC(=O)[C@H]1CCCSC1`, the IC50 (as a rule, the concentration that gives 50% inhibition) is 98.8 nM.

Take `CC(C)(C)NC(=O)[C@@H]1C[C@@H]2CCCC[C@@H]2CN1C[C@@H](O)[C@H](Cc1ccccc1)NC(=O)[C@@H]1CCCS(=O)(=O)C1`: the midpoint of inhibition, the IC50, lay at 9.2 nM.

`CC(C)(C)NC(=O)[C@@H]1C[C@@H]2CCCC[C@@H]2CN1C[C@@H](O)[C@H](Cc1ccccc1)NC(=O)[C@@H]1CCS(=O)(=O)C1`: the IC50 worked out at 200 nM. Against the preceding molecule, the IC50 is about 22-fold higher.

As to `CC(C)(C)NC(=O)[C@@H]1C[C@@H]2CCCC[C@@H]2CN1C[C@@H](O)[C@H](Cc1ccccc1)NC(=O)C1=CCCS(=O)(=O)C1`, the IC50 is 54.7 nM.

Molecule `CC(C)(C)NC(=O)[C@@H]1C[C@@H]2CCCC[C@@H]2CN1C[C@@H](O)[C@H](Cc1ccccc1)NC(=O)[C@H]1CCS(=O)(=O)C1` returned an IC50 of 193 nM.

With `CC(C)(C)NC(=O)[C@@H]1C[C@@H]2CCCC[C@@H]2CN1C[C@@H](O)[C@H](Cc1ccccc1)NC(=O)[C@@H]1CCSC1`, the 50% inhibitory concentration (IC50) is 342 nM.

In turn, `CC(C)(C)NC(=O)[C@@H]1C[C@@H]2CCCC[C@@H]2CN1C[C@@H](O)[C@H](Cc1ccccc1)NC(=O)[C@@H]1CCCSC1` registered a half-inhibitory concentration (IC50) of 78.4 nM.

`CC(C)(C)NC(=O)[C@@H]1C[C@@H]2CCCC[C@@H]2CN1C[C@@H](O)[C@H](Cc1ccccc1)NC(=O)C1=CCCSC1`: it took 167 nM to reach half-maximal inhibition (IC50). Against the preceding molecule, the IC50 is about 2.1-fold higher.
